Data reported in patent publication US20020148001A1, “Transgenic mice containing CRFR2 corticotropin-releasing factor receptor gene disruptions” (priority 2000, published 2002).
No end group written: not given here.

Key:
CRF2 receptor = molecular target: T1, CRF2 receptor (Homo sapiens, UniProt Q13324); conditions: transfected cells expressing the CRF2 receptor; cited from earlier work
T1 sequence (Q13324 1-411): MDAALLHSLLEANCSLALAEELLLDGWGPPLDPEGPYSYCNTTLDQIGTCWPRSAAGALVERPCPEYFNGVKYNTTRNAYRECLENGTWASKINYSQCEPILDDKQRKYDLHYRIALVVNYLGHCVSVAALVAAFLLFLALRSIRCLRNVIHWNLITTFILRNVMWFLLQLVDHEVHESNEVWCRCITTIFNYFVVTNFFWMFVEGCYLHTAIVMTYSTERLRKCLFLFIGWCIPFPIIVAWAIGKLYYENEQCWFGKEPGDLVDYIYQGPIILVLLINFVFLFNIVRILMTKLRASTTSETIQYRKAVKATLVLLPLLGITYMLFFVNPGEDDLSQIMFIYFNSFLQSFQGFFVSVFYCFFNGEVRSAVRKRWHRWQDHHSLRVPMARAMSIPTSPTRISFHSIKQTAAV

CRHR2 −/− mice [1] = conditions: intravenously injected, mutant mice; cited from earlier work
CRHR2 −/− mice [2] = conditions: systemic urocortin, CRHR2 −/− mice in contrast to wildtype; cited from earlier work
CRHR2 −/− mice [3] = conditions: CRHR2 −/− mice following urocortin administration; recovered more rapidly than wildtype; cited from earlier work
[4] = system: wild-type control mice (+/+); assay: Metrazol dose test (seizure susceptibility), wild-type control mice; type: in vivo, mouse; conditions: genotype +/+
Method: (§1) A metrazol administration test can be used to screen animals for varying susceptibilities to seizures or similar events. For example, a 5 mg/ml solution of metrazol can be infused through the tail vein of a mouse at a rate of, e.g., approximately 0.375 ml/min. The infusion will cause all mice to experience seizures, followed by death. Those mice that enter the seizure stage the soonest are believed to be more prone to seizures.
(§2) Phenotypic Analysis. The transgenic mice were analyzed for phenotypic changes.

[5] = system: homozygous mutant mice (CRFR2 −/−); assay: Metrazol dose test (seizure susceptibility), CRFR2 homozygous mutant mice; type: in vivo, mouse; conditions: for Dose to Death / Dose to Extension (tonic extension) / Dose to T/C (tonic/clonic seizure) / Dose to Twitch: genotype −/−
Method: as §1, §2

With corticotropin-releasing hormone [CRH] as the compound, how does the “intracellular cAMP” value (CRF2 receptor) read?
The value was “increase”.

For “urocortin (DDPPLSIDLTFHLLRTLLELARTQSQRERAEQNRIIFDSV; ends and bridges not checked; UniProt P81615 81-120, looked up)”, which “effect on mean arterial pressure” value (CRHR2 −/− mice [1]) is on record?
Its value is “no effect”.

And the “enhanced cardiac performance or reduced blood pressure” value (CRHR2 −/− mice [2])?
Its value is “failed to show the enhanced cardiac performance or reduced blood pressure”.

What about the feeding (CRHR2 −/− mice [3]) of the same compound?
Its feeding is “initially suppressed”.

With `C1CCc2nnnn2CC1` [metrazol] as the compound, how does the “Dose to Death” value ([4]; F2N0) read?
The value was 136.65 mg/kg body weight.

And the “Dose to Extension (tonic extension)” value ([4]; F2N0)?
The value was 113.63 mg/kg body weight.

And the “Dose to T/C (tonic/clonic seizure)” value ([4]; F2N0)?
The value was 43.46 mg/kg body weight.

What about the “Dose to Twitch” value ([4]; F2N0, tail vein infusion) of the same compound?
Its value is 36.93 mg/kg body weight.

And the “Dose to Death” value ([4]; F2N1)?
Its value is 124.96 mg/kg body weight.

What about the “Dose to Extension (tonic extension)” value ([4]; F2N1) of the same compound?
The value was 95.46 mg/kg body weight.

And the “Dose to T/C (tonic/clonic seizure)” value ([4]; F2N1)?
Its value is 34.36 mg/kg body weight.

What about the “Dose to Twitch” value ([4]; F2N1) of the same compound?
The value was 23.71 mg/kg body weight.

What about the “Dose to Death” value ([5]; F2N0) of the same compound?
The value was 127.39 mg/kg body weight.

What about the “Dose to Extension (tonic extension)” value ([5]; F2N0) of the same compound?
Its value is 98.20 mg/kg body weight.

And the “Dose to T/C (tonic/clonic seizure)” value ([5]; F2N0)?
Its value is 44.38 mg/kg body weight.

And the “Dose to Twitch” value ([5]; F2N0)?
Its value is 34.90 mg/kg body weight.

And the “Dose to Death” value ([5]; F2N1)?
The value was 148.84 mg/kg body weight.

What about the “Dose to Extension (tonic extension)” value ([5]; F2N1) of the same compound?
The value was 119.75 mg/kg body weight.

What about the “Dose to T/C (tonic/clonic seizure)” value ([5]; F2N1) of the same compound?
The value was 37.93 mg/kg body weight.

And the “Dose to Twitch” value ([5]; F2N1)?
Its value is 24.18 mg/kg body weight.

And the “metrazol response threshold, dose to show stereotypical seizure responses” value ([5]; homozygotes compared to wild-types, particularly tonic extension and death)?
The value was “higher dose of metrazol than wild-types”.
